Reference: PubChem BioAssay AID1963871 (Molecular Pharmacology Branch, DTP, NCI, 2024)

Tested on: KRAS-mutant PDC multicell tumor spheroid viability
Assay: Anticancer human tumor 521955-158-R2-J5-PDC patient-derived pancreatic carcinoma cell line growth inhibition [KRAS2]
Details: for IC50: curve of first compound; for viability, T/C: stronger effect = lower value
Summary of the method: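 KRAS-mutant tumor cells were grown as spheroids with HUVEC endothelial cells and human MSCs as stroma. Targeted agents were tested alone and with KRAS pathway inhibitors. Doses started at or near clinical Cmax, or 10 microM, descending half-log.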

[1] = second compound 0.1 µM, first compound 0.01 µM
[2] = second compound 0.1 µM, first compound 0.0316 µM
[3] = second compound 0.1 µM, first compound 0.1 µM
[4] = second compound 0.1 µM, first compound 0.316 µM
[5] = second compound 0.1 µM, first compound 1 µM
[6] = second compound 0.1 µM, first compound 3.16 µM
[7] = second compound 0.316 µM, first compound 0.01 µM
[8] = second compound 0.316 µM, first compound 0.0316 µM
[9] = second compound 0.316 µM, first compound 0.1 µM
[10] = second compound 0.316 µM, first compound 0.316 µM
[11] = second compound 0.316 µM, first compound 1 µM
[12] = second compound 0.316 µM, first compound 3.16 µM
[13] = second compound 1 µM, first compound 0.01 µM
[14] = second compound 1 µM, first compound 0.0316 µM
[15] = second compound 1 µM, first compound 0.1 µM
[16] = second compound 1 µM, first compound 0.316 µM
[17] = second compound 1 µM, first compound 1 µM
[18] = second compound 1 µM, first compound 3.16 µM
[19] = second compound 3.16 µM, first compound 0.01 µM
[20] = second compound 3.16 µM, first compound 0.0316 µM
[21] = second compound 3.16 µM, first compound 0.1 µM
[22] = second compound 3.16 µM, first compound 0.316 µM
[23] = second compound 3.16 µM, first compound 1 µM
[24] = second compound 10 µM, first compound 0.01 µM
[25] = second compound 10 µM, first compound 0.0316 µM
[26] = second compound 10 µM, first compound 0.1 µM
[27] = second compound 10 µM, first compound 0.316 µM
[28] = second compound 10 µM, first compound 1 µM
[29] = second compound 10 µM, first compound 3.16 µM
[30] = second compound 3.16 µM, first compound 3.16 µM
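Also: viability read after seven days of drug exposure.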

SMILES	IC50 (second compound 0.1 µM) [nM]	IC50 (second compound 0.316 µM) [nM]	IC50 (second compound 1 µM) [nM]	IC50 (second compound 3.16 µM) [nM]	IC50 (second compound 10 µM) [nM]	viability, T/C [2] [%]	viability, T/C [3] [%]	viability, T/C [4] [%]	viability, T/C [5] [%]	viability, T/C [6] [%]	viability, T/C [8] [%]	viability, T/C [9] [%]	viability, T/C [10] [%]	viability, T/C [11] [%]	viability, T/C [12] [%]	viability, T/C [14] [%]	viability, T/C [15] [%]	viability, T/C [16] [%]	viability, T/C [17] [%]	viability, T/C [18] [%]	further results
CC1COCCN1c1cc(-c2ccnn2C)c2ccnc(-c3ccn[nH]3)c2n1 (centres undefined) + C=CC(=O)N1CCN(c2nc(=O)n(-c3c(C)ccnc3C(C)C)c3nc(-c4c(O)cccc4F)c(F)cc23)C(C)C1	30.2	40.3	30.1	24.3	11.5	47.9	10.5	13.5	24.1	26.9	58.5	11.4	13	20.3	28	47.6	10.5	13.6	25.6	29	viability, T/C [1]: 101%; viability, T/C [7]: 114%; viability, T/C [13]: 102%; viability, T/C [19]: 79.2%; viability, T/C [20]: 41.3%; viability, T/C [21]: 11.6%; viability, T/C [22]: 13.7%; viability, T/C [23]: 22.6%; viability, T/C [24]: 54.1%; viability, T/C [25]: 18.1%; viability, T/C [26]: 13.2%; viability, T/C [27]: 18.1%; viability, T/C [28]: 23.4%; viability, T/C [29]: 25.5%
COc1cc(Nc2ncc3c(n2)-c2ccc(Cl)cc2C(c2c(F)cccc2OC)=NC3)ccc1C(=O)O + COc1cc2nc(C)nc(NC(C)c3cc(N)cc(C(F)(F)F)c3)c2cc1OC1CCOC1	< 31.6	< 31.6	< 31.6	< 31.6	< 31.6	40.5	35.1	41.5	37.5	37.2	45.3	38.4	40.7	36.7	37.3	46.9	35.4	39.4	40.5	33	viability, T/C (second compound 0.1 µM, first compound 10 µM): 33.2%; viability, T/C (second compound 0.316 µM, first compound 10 µM): 34.6%; viability, T/C (second compound 1 µM, first compound 10 µM): 34.2%; viability, T/C [20]: 38.5%; viability, T/C [21]: 32%; viability, T/C [22]: 32.5%; viability, T/C [23]: 33.7%; viability, T/C [30]: 30.1%; viability, T/C (second compound 3.16 µM, first compound 10 µM): 31.6%; viability, T/C [25]: 11.7%; viability, T/C [26]: 2.43%; viability, T/C [27]: 2.29%; viability, T/C [28]: 2.71%; viability, T/C [29]: 10.7%; viability, T/C (second compound 10 µM, first compound 10 µM): 2.59%
CC(=O)OC12COC1CC(O)C1(C)C(=O)C(O)C3=C(C)C(OC(=O)C(O)C(NC(=O)OC(C)(C)C)c4ccccc4)CC(O)(C(OC(=O)c4ccccc4)C21)C3(C)C (centres undefined) + CNCc1ccccc1-c1csc(C(C)Nc2nc(C)nc3cc(OC)c(OC)cc23)c1	< 10	< 10	< 10	< 10	< 10	16.2	15.3	14.8	16.6	20.3	16.6	16.7	15.8	19.6	23.6	13.2	13.2	13.2	19.9	20	viability, T/C [1]: 28.2%; viability, T/C [7]: 20.4%; viability, T/C [13]: 23%; viability, T/C [19]: 0.16%; viability, T/C [20]: 13.9%; viability, T/C [21]: 0.05%; viability, T/C [22]: 0.05%; viability, T/C [23]: 0.1%; viability, T/C [30]: 17%; viability, T/C [24]: 0.17%; viability, T/C [25]: 0.14%; viability, T/C [26]: 0.11%; viability, T/C [27]: 0.11%; viability, T/C [28]: 0.12%; viability, T/C [29]: 0.34%
